# In patent US8124629B2, “Naphthylacetic acids” (Hoffmann-La Roche Inc., priority 2008, dated 2012):
# Experiments:
# human CRTH2 [1] = target: T1, human CRTH2 (Homo sapiens, UniProt Q9Y5Y4); assay: Calcium Flux Assay Using Fluorometric Imaging Plate Reader (FLIPR); format: cell-based; design: expressed in transfected cells; host or cells: CHO-K1 (previously transfected with G-alpha 16); conditions: CHO-K1 cells with G-alpha 16 and human CRTH2; inhibition of ligand (DK-PGD2) induced Ca2+ flux; read-out: FLIPR assay IC50 (exceptions, greater than 3)
# T1 sequence (Q9Y5Y4 1-395): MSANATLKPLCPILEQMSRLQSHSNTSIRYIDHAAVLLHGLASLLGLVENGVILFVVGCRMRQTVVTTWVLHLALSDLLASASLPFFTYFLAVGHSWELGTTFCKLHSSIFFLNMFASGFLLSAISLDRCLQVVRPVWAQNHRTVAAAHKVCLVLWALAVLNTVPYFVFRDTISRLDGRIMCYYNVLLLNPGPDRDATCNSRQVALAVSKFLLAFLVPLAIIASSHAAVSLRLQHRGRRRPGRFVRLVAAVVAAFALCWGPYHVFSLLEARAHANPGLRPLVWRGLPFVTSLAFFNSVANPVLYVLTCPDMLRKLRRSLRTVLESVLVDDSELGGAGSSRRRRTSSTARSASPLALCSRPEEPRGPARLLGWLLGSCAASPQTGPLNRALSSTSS
# Method: CHO-K1 cells previously transfected with G-alpha 16 were subsequently transfected with the human CRTH2 receptor and the neomycin resistance gene. Following selection in 800 μg/mL G418 (geneticin), individual clones were assayed for their receptor expression based on staining with an anti human CRTH2 IgG, followed by assaying for their response to 13,14-dihydro-15-keto Prostaglandin D2 (DK-PDG2) (ligand) in the Ca^2+Flux assay. Positive clones were then cloned by limiting dilution cloning. The transfected cells were cultured in Ham's F-12 medium supplemented with 10% fetal bovine serum, 2 mM glutamine , 100 U/mL penicillin/100 μg/mL streptomycin, 200 μg/mL hygromycin B, and 800 μg/mL G418 (geneticin). Cells were harvested with trypsin-EDTA (trypsin-ethylenediaminetetraacetic acid) and counted using ViaCount® reagent (from Guava Technologies, Inc. which contains two DNA-binding dyes that enable the reagent user to distinguish between viable and non-viable cells). The cell suspension volume was adjusted to 2.5×10^5 cells /mL with complete growth media. Aliquots of 50 μL were dispensed into BD Falcon™ 384 well black/clear microplates (from BD Biosciences, a division of Becton, Dickinson and Company) and the microplates were placed in a 37° C. CO2 incubator overnight. The following day, the microplates were used in the assay.
# Loading Buffer containing dye (from the FLIPR® Calcium 3 Assay Kit from Molecular Devices, a division of MDS Analytical Technologies and MDS Inc.) was prepared by dissolving the contents of one bottle into 200 mL Hank's Balanced Salt Solution containing 20 mM HEPES (4-(2-hydroxyethyl)-1-piperazineethanesulfonic acid) and 2.5 mM probenecid. Growth media was removed from the cell plates and 25 μL of Hank's Balanced Salt Solution (HBSS) containing 20 mM HEPES, 0.05% BSA and 2.5 mM probenecid was added to each well followed by 25 μL of diluted dye using a Multidrop dispenser. The plates were then incubated for 1 hour at 37° C.
# During the incubation, test compound plates were prepared by adding 90 μL of HBSS/20 mM HEPES/0.005% BSA buffer to the 2 μL of serial diluted compounds. To prepare serial diluted compounds, 20 mM stocks of compounds were dissolved in 100% DMSO. The compound dilution plate was set up as follows: well #1 received 5 μL of compound plus 10 μL of DMSO. Wells 2-10 received 10 μL of DMSO. 5 μL was mixed and transferred from well #1 into well #2. 1:3 serial dilutions were continued out 10 steps. 2 μL of diluted compound was transferred into duplicate wells of a 384 well “assay plate” and then 90 μL of buffer was added.
# After incubation, both the cell and “assay plate” plates were brought to the fluorometric imaging plate reader (FLIPR®) and 20 μL of the diluted compounds were transferred to the cell plates by the FLIPR®. Plates were then incubated for 1 hour at room temperature. After the 1 hour incubation, plates were returned to the FLIPR® and 20 μL of 4.5× concentrated ligand was added to the cell plates. During the assay, fluorescence readings were taken simultaneously from all 384 wells of the cell plate every 1.5 seconds. Five readings were taken to establish a stable baseline, then 20 μL of sample was rapidly (30 μL/sec) and simultaneously added to each well of the cell plate. The fluorescence was continuously monitored before, during and after sample addition for a total elapsed time of 100 seconds. Responses (increase in peak fluorescence) in each well following agonist addition were determined. The initial fluorescence reading from each well, prior to ligand stimulation, was used as a zero baseline value for the data from that well. The responses were expressed as % inhibition of the buffer control. […]
# human CRTH2 [2] = target: T1, human CRTH2; assay: Human CRTH2 Receptor Binding Assay (whole cell, [3H]ramatroban); design: expressed in transfected cells; host or cells: CHO-K1; conditions: CHO-K1 cells expressing human CRTH2 and G-alpha16; 20 nM [3H]ramatroban; 1 hour, room temperature
# Method in brief: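 CHO-K1 cells stably co-expressing human CRTH2 and G-alpha16, 1.5×10^5 cells/reaction, bound 1 h at room temperature with 20 nM [3H]ramatroban in PBS, 10 mM MgCl2, 0.06% BSA. Filter-bound radioactivity counted; non-specific binding defined with 10 μM 15(R)-15-methyl PGD2. IC50 from 4-parameter fit of 7-concentration inhibition data.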
# [3] = system: DK-PGD2-induced IL-13 production in Th2 cells; assay: DK-PGD2-Induced IL-13 Production Assay in Th2 Cells; format: cell-based; conditions: human Th2 cells; 500 nM DK-PGD2; 4 hrs at 37° C.; IL-13 by ELISA; read-out: IC50 for inhibition of IL-13 production
# Method: Inhibition of 13,14-dihydro-15-keto Prostaglandin D2 (DK-PGD2)-induced IL-13 production in T helper type 2 (Th2) cells was applied to evaluate compound cellular potency.
# Cultures of Th2 cells were established from blood of healthy human volunteers according to the following procedure. Peripheral blood mononuclear cells (PBMC) were first isolated from 50 mL of fresh blood by Ficoll-Hypaque density gradient centrifugation, followed by CD4^+cell purification using a CD4^+T Cell Isolation Kit II (from Miltenyi Biotec Inc.). The CD4^+T cells were then differentiated to Th2 cells by culturing the cells in X-VIVO 15® medium (from Cambrex BioScience Walkersville Inc.) containing 10% human AB serum (serum of blood type AB from Invitrogen Corporation), 50 U/mL of recombinant human interleukin-2 (rhIL-2) (from PeproTech Inc.) and 100 ng/mL of recombinant human interleukin-4 (rhIL-4) (from PeproTech Inc.) for 7 days. The Th2 cells were isolated using a CD294 (CRTH2) MicroBead Kit (from Miltenyi Biotec Inc.) and amplified in X-VIVO 15® medium containing 10% human AB serum and 50 U/mL of rhIL-2 for 2 to 5 weeks. In general, 70% to 80% of the Th2 cells used in the assay are CRTH2-positive when analyzed by fluorescence-activated cell sorting using the BM16 antibody (as previously described) conjugated to phycoerythrin (PE).
# The spontaneous production of IL-13 by Th2 cells was determined in the absence of DK-PGD2 stimulation and the value was subtracted from that in the presence of each compound for percent inhibition and IC50 calculations.
# The percent inhibition of interleukin 13 (IL-13) production for a compound at various concentrations was calculated according to the following formula, [1-(IL-13 production in the presence of compound)/(IL-13 production in the presence of 0.15% DMSO)]×100. […]
Structure (SMILES),IC50 (human CRTH2 [1]),IC50 (human CRTH2 [2]),IC50 [3],melting point
"NS(=O)(=O)c1ccc(C(=O)c2cc(CC(=O)O)cc3ccc(F)cc23)cc1 [Example 1-2, [6-Fluoro-4-(4-sulfamoyl-benzoyl)-naphthalen-2-yl]-acetic acid]",> 3000 nM,40.2 nM,,
"NS(=O)(=O)c1ccc(C(=O)c2cc(CC(=O)O)cc3ccccc23)cc1 [Example 1-3, [4-(4-Sulfamoyl-benzoyl)-naphthalen-2-yl]-acetic acid]",> 3000 nM,336 nM,,
"CS(=O)(=O)c1ccc(C(=O)c2cc(CC(=O)O)cc3cc4c(cc23)OCO4)cc1 [Example 2-7, [8-(4-Methanesulfonyl-benzoyl)-naphtho[2,3-d][1,3]dioxol-6-yl]-acetic acid]",> 3000 nM,264 nM,,
"COc1ccc2c(C(=O)c3ccc(S(C)(=O)=O)cc3)cc(CC(=O)O)cc2c1 [Example 2-9, [4-(4-Methanesulfonyl-benzoyl)-7-methoxy-naphthalen-2-yl]-acetic acid]",> 3000 nM,199 nM,,
"CS(=O)(=O)c1cccc(C(=O)c2cc(CC(=O)O)cc3ccccc23)c1 [Example 2-11, [4-(3-Methanesulfonyl-benzoyl)-naphthalen-2-yl]-acetic acid]",> 3000 nM,135 nM,,
"CS(=O)(=O)c1cccc(C(=O)c2cc(CC(=O)O)cc3cc4c(cc23)OCO4)c1 [Example 2-12, [8-(3-Methanesulfonyl-benzoyl)-naphtho[2,3-d][1,3]dioxol-6-yl]-acetic acid]",> 3000 nM,152 nM,,
"CS(=O)(=O)c1ccc(C(=O)c2cc(CC(=O)O)cc3ccc(C(F)(F)F)cc23)cc1 [Example 2-29, [4-(4-Methanesulfonyl-benzoyl)-6-trifluoromethyl-naphthalen-2-yl]-acetic acid]",,7.5 nM,3000 nM,
"CS(=O)(=O)c1cccc(C(=O)c2cc(CC(=O)O)cc3ccc(Cl)cc23)c1 [Example 2-30, [6-Chloro-4-(3-methanesulfonyl-benzoyl)-naphthalen-2-yl]-acetic acid]",> 3000 nM,82.5 nM,,
"CC(C(=O)O)c1cc(C(=O)c2ccc(S(C)(=O)=O)cc2)c2cc(F)ccc2c1 (stereo not drawn) [Example 7-1, 2-[6-Fluoro-4-(4-methanesulfonyl-benzoyl)-naphthalen-2-yl]-propionic acid]",> 3000 nM,53.3 nM,,
"CS(=O)(=O)c1ccc(Cc2cc(CC(=O)O)cc3cc(C(F)(F)F)ccc23)cc1 [Example 8-3, [4-(4-Methanesulfonyl-benzyl)-7-trifluoromethyl-naphthalen-2-yl]-acetic acid]",,162 nM,> 10000 nM,
"Cc1c(CC(=O)O)cc2ccc(F)cc2c1Cc1ccc(S(=O)(=O)C(F)(F)F)cc1 [Example 11-1, [6-Fluoro-3-methyl-4-(4-trifluoromethanesulfonyl-benzyl)-naphthalen-2-yl]-acetic acid]",,3 nM,,200 to 201 °C
"Cc1ccc2cc(CC(=O)O)cc(C(O)c3ccc(S(C)(=O)=O)cc3)c2c1 (stereo not drawn) [Example 16-2, {4-[Hydroxy-(4-methanesulfonyl-phenyl)-methyl]-6-methyl-naphthalen-2-yl}-acetic acid]",,386 nM,5750 nM,
